We go through eleven compounds from ChEMBL document CHEMBL5252579, “Discovery of fluorinated 2‑Styryl 4(3H)-quinazolinone as potential therapeutic hit for oral cancer” (Bioorg Med Chem, 2023).

Calls of active or inactive are those of the source. The rule behind the calls is not given here.

The nature of data set [1]: Cytotoxicity against human normal oral epithelial cell assessed as reduction in cell viability incubated for 24 hrs by alamar blue assay. In kind it is toxicity, cell-based. The note with it: normal oral epithelial cells. A general note: Alamar Blue is a resazurin reagent that responds to reducing activity.
Data set [2] deals with CAL-27. Briefly: Cytotoxicity against human CAL-27 cells assessed as reduction in cell viability incubated for 24 hrs by alamar blue assay. The class given is functional, cell-based. The following applies: CAL-27, 24 h.
Data set [3] has as its system CAL-27. Briefly: Downregulation of MTORC1 signaling gene in human CAL-27 cells at IC50 concentration incubated for 24 hrs by RNA sequencing analysis. The class given is functional, cell-based.
Data set [4] concerns CAL-27. Briefly: Upregulation of epithelial mesenchymal gene in human CAL-27 cells at IC50 concentration incubated for 24 hrs by RNA sequencing analysis. In kind it is functional, cell-based.
The test system of data set [5] is CAL-27. Briefly: Upregulation of KRAS signaling gene in human CAL-27 cells at IC50 concentration incubated for 24 hrs by RNA sequencing analysis. In kind it is functional, cell-based.
The subject of data set [6] is CAL-27. Briefly: Upregulation of p53 pathway in human CAL-27 cells at IC50 concentration incubated for 24 hrs by RNA sequencing analysis. In kind it is functional, cell-based.
Data set [7] is described as follows: Induction of cell cycle arrest in human normal oral epithelial cell assessed as reduction in cells at S phase at IC50 concentration incubated for 24 hrs by propidium iodide staining based flow cytometric analysis (reference value: 31.85 %). In kind it is toxicity. Set-up: scale not given: the % may be the effect or the level left. A general note: In flow cytometry, cells or beads pass a laser one at a time.

Data set [8] deals with CAL-27. Briefly: Downregulation of estrogen response gene in human CAL-27 cells at IC50 concentration incubated for 24 hrs by RNA sequencing analysis. The class given is functional, cell-based.
The subject of data set [9] is CAL-27. Briefly: Downregulation of MYC gene in human CAL-27 cells at IC50 concentration incubated for 24 hrs by RNA sequencing analysis. The class given is functional, cell-based.
Data set [10] has as its system CAL-27. Briefly: Antimigratory activity against human CAL-27 cells assessed as reduction in gap closure at 14 uM after 24 hrs by scratch wound healing assay (reference value: 65.2%). The class given is functional. Details: scale not given: the % may be the effect or the level left.
The test system of data set [11] is CAL-27. Briefly: Upregulation of apoptosis gene in human CAL-27 cells at IC50 concentration incubated for 24 hrs by RNA sequencing analysis. The class given is functional, cell-based.
Data set [12] relates to CAL-27. Briefly: Upregulation of myogenesis gene in human CAL-27 cells at IC50 concentration incubated for 24 hrs by RNA sequencing analysis. In kind it is functional, cell-based.
Data set [13] deals with CAL-27. Briefly: Upregulation of MTORC1 signaling gene in human CAL-27 cells at IC50 concentration incubated for 24 hrs by RNA sequencing analysis. In kind it is functional, cell-based.
Data set [14] has as its system CAL-27. Briefly: Upregulation of IL2 STAT5 signaling gene in human CAL-27 cells at IC50 concentration incubated for 24 hrs by RNA sequencing analysis. In kind it is functional, cell-based.
Data set [15] has as its system CAL-27. Briefly: Downregulation of G2M checkpoint gene in human CAL-27 cells at IC50 concentration incubated for 24 hrs by RNA sequencing analysis. In kind it is functional, cell-based.
A short description of data set [16]: Induction of cell cycle arrest in human normal oral epithelial cell assessed as accumulation at G1 phase at IC50 concentration incubated for 24 hrs by propidium iodide staining based flow cytometric analysis (reference value: 55.49 %). In kind it is toxicity.
In data set [17] the test system is CAL-27. Briefly: Cytotoxicity against human CAL-27 cells assessed as reduction in cell viability incubated for 48 hrs by alamar blue assay. The class given is functional, cell-based. The following applies: CAL-27, 48 h.
The subject of data set [18] is CAL-27. Briefly: Downregulation of interferon gamma gene in human CAL-27 cells at IC50 concentration incubated for 24 hrs by RNA sequencing analysis. In kind it is functional, cell-based.
The subject of data set [19] is CAL-27. Briefly: Induction of cell cycle arrest in human CAL-27 cells assessed as decrease in cells at S phase at IC50 concentration incubated for 24 hrs by propidium iodide staining based flow cytometric analysis (reference value: 23.97 %). In kind it is functional. Set-up: scale not given: the % may be the effect or the level left.
For data set [20], the system named is CAL-27. Briefly: Downregulation of KRAS signaling gene in human CAL-27 cells at IC50 concentration incubated for 24 hrs by RNA sequencing analysis. In kind it is functional, cell-based.
The subject of data set [21] is CAL-27. Briefly: Downregulation of E2F gene in human CAL-27 cells at IC50 concentration incubated for 24 hrs by RNA sequencing analysis. In kind it is functional, cell-based.
In data set [22] the test system is CAL-27. Briefly: Cytotoxicity against human CAL-27 cells assessed as reduction in cell viability incubated for 72 hrs by alamar blue assay. In kind it is functional, cell-based. The following applies: CAL-27, 72 h.
Data set [23] has as its system CAL-27. Briefly: Upregulation of hypoxia related gene in human CAL-27 cells at IC50 concentration incubated for 24 hrs by RNA sequencing analysis. The class given is functional, cell-based.
Data set [24] is described as follows: Induction of cell cycle arrest in human normal oral epithelial cell assessed as accumulation at G2/M phase at IC50 concentration incubated for 24 hrs by propidium iodide staining based flow cytometric analysis (reference value: 12.79 %). The class given is toxicity.
Data set [25] relates to CAL-27. Briefly: Induction of cell cycle arrest in human CAL-27 cells assessed as accumulation at G1 phase at IC50 concentration incubated for 24 hrs by propidium iodide staining based flow cytometric analysis (reference value: 61.61 %). The class given is functional.
Data set [26] has as its system CAL-27. Briefly: Upregulation of glycolysis gene in human CAL-27 cells at IC50 concentration incubated for 24 hrs by RNA sequencing analysis. In kind it is functional, cell-based.
Data set [27] has as its system CAL-27. Briefly: Antimigratory activity against human CAL-27 cells at 14 uM after 24 hrs by scratch wound healing assay. In kind it is functional.
Data set [28] concerns CAL-27. Briefly: Downregulation of mitotic spindle in human CAL-27 cells at IC50 concentration incubated for 24 hrs by RNA sequencing analysis. The class given is functional, cell-based.
Data set [29] relates to CAL-27. Briefly: Antimigratory activity against human CAL-27 cells assessed as reduction in number of colonies at 14 uM replaced with fresh medium for every 2 days for 10 days by crystal violet staining based inverted microscopic analysis (reference value: 234). The class given is functional. The following applies: time 10 day.
Data set [30] deals with CAL-27. Briefly: Induction of cell cycle arrest in human CAL-27 cells assessed as accumulation at G2/M phase at IC50 concentration incubated for 24 hrs by propidium iodide staining based flow cytometric analysis (reference value: […]). The class given is functional.
The test system of data set [31] is CAL-27. Briefly: Upregulation of TNF-alpha signaling NF-kappaB gene in human CAL-27 cells at IC50 concentration incubated for 24 hrs by RNA sequencing analysis. The class given is functional, cell-based.

A word on the IC50: it is the point on the concentration scale where inhibition reaches its midpoint. `O=c1[nH]c(/C=C/c2ccc([N+](=O)[O-])cc2)nc2ccccc12`: the IC50 at 24 h in data set [1] came out at 12 µM. Moreover, in the data set with CAL-27 [2], the IC50 is 16 µM.

As for `N#Cc1ccc(/C=C/c2nc3ccccc3c(=O)[nH]2)cc1`, the IC50 at 24 h in [1] was 25 µM. For the same compound, the IC50 with CAL-27 [2] worked out at 17 µM.

With `O=c1[nH]c(/C=C/c2ccc(F)cc2)nc2ccccc12`, the outcome with CAL-27 [3], in the data set on CAL-27 [4], in the data set on CAL-27 [5], in the data set on CAL-27 [6], in the data set on CAL-27 [8] and in the data set with CAL-27 [9] was Active. Besides, the result in the data set on CAL-27 [11], with CAL-27 [12], with CAL-27 [13], in the data set with CAL-27 [14], in the data set with CAL-27 [15] and in the data set with CAL-27 [18] was Active. Further, the outcome with CAL-27 [20], in the data set on CAL-27 [21], with CAL-27 [23], with CAL-27 [26], in the data set with CAL-27 [28] and in the data set with CAL-27 [31] was Active. Moreover, the IC50 at 24 h in data set [1] turned out to be 41.4 µM. For the same compound, the Activity in [7] came out at 30.19%; in the data set with CAL-27 [10], 36%; in data set [16], 55.99%; with CAL-27 [19], 9.76%; in data set [24], 13.79%; in the data set with CAL-27 [25], 76.12%. The values for the Activity in the data set with CAL-27 [27], with CAL-27 [29] and with CAL-27 [30] were 64%, 158 and 14.24%, respectively. Further, the IC50 came to 12.9 µM in the data set with CAL-27 [2], 10 µM in the data set with CAL-27 [17] and 8 µM in the data set on CAL-27 [22].

`O=c1[nH]c(/C=C/c2cccs2)nc2ccccc12`: the IC50 at 24 h in [1] is 16.2 µM. In the data set with CAL-27 [2], the IC50 was determined as 11.3 µM.

As to `O=c1[nH]c(/C=C/c2cccc(F)c2)nc2ccccc12`, the IC50 at 24 h in data set [1] turned out to be 26 µM. The IC50 in the data set with CAL-27 [2] came to 16 µM.

On to `O=c1[nH]c(/C=C/c2ccc(Cl)cc2)nc2ccccc12`, for which, in data set [1], the IC50 at 24 h came out at 17 µM. In the data set on CAL-27 [2], the IC50 worked out at 15.6 µM.

Consider `Cc1ccc(/C=C/c2nc(O)c3ccccc3n2)cc1`, for which, in [1], the 50% inhibitory concentration (IC50) at 24 h stood at 14 µM. Moreover, in the data set on CAL-27 [2], the concentration for half-maximal inhibition (IC50) was found to be 14.6 µM.

For `O=c1[nH]c(/C=C/c2c(F)c(F)c(F)c(F)c2F)nc2ccccc12`, in data set [1], the IC50 at 24 h came out at 17 µM. In addition, the IC50 with CAL-27 [2] was determined as 13.6 µM.

For `C/C(=C\c1ccccc1)c1nc2ccccc2c(=O)[nH]1`, the IC50 at 24 h in data set [1] came out at 15 µM. Also, in the data set on CAL-27 [2], the IC50 came out at 8.6 µM.

Turning to `CN(C)c1ccc(/C=C/c2nc(O)c3ccccc3n2)cc1`, the IC50 at 24 h in [1] is 31 µM. Besides, the IC50 with CAL-27 [2] was determined as 13.6 µM.

On to `COc1ccc(/C=C/c2nc3ccccc3c(=O)[nH]2)cc1`, for which, in [1], the IC50 at 24 h was 13 µM. For the same compound, in the data set on CAL-27 [2], the IC50 was 14 µM.
